Measured values as given in US11535754B2, “Silicon containing detectable compounds and uses thereof” (Singular Genomics Systems, Inc., priority 2019, dated 2022).

Assay: Absorption maximum (λmax) of the azasiline dyes, from the HPLC / LC-MS absorption profile
Type: physicochemical
Conditions: absorption profile from HPLC/LC-MS analysis (FIGS. 1A-1B: 100 mM TEAA and ACN); value for compound 4 from initial attempts to quantify the absorption
Method: FIGS. 1A-1B. Absorption profile for compound 2 (FIG. 1A) and compound 3 (FIG. 1B), as described herein: HPLC chromatogram of the reaction mixture with 100 mM triethylammonium acetate (TEAA) and acetonitrile (ACN).
A mixture of 1a (0.155 mmol) and hydrochloric acid (0.053 mL) in absolute ethanol (1.6 mL) was cooled to 0° C., to which a solution of sodium nitrite (12.1 mg in 0.107 mL) in water was added and stirred for 3 hours after which the solid (dark green crystals) was filtered off. It was diluted with ethanol (1 mL) and 0.02 mL of 1N HCl was added to the mixture. The resulting mixture was refluxed for 4 hours. The progress of the reaction was monitored by HPLC using triethylammonium acetate (TEAA) and acetonitrile (ACN) as the mobile phases on reverse phase (RP) C18 column. The formation of the product was confirmed by mass analysis and HPLC analysis based on the wavelength (see FIG. TA). […]
Synthesis of compound 3. […] The reaction mixture was stirred for overnight and the progress of the reaction was monitored by LC-MS analysis to generate compound 3 (λmax 810 nm); see FIG. 1B.
Synthesis of compound 4. […] The reaction mixture was stirred for overnight and the progress of the reaction was monitored by LC-MS analysis to generate and confirm the presence of compound 4.

CN1CCCc2cc3c(cc21)[Si](C)(C)c1cc2c(cc1=N3)CCC[N+]=2C [compound 4]
absorption maximum (λmax): greater than 850 nm
